In US8022103B2, “Ester prodrugs of prostratin and related phorbol compounds” (Salvia Sciences, Inc., priority 2005, dated 2011):
Converted amounts (≈) assume the structure as drawn. Where two headings read alike, the source gives them in different places.

Experiments:
[1] = system: HCV RNA replicon; assay: HCV RNA replicon luciferase assay; format: cell-based
Protocol: Compounds SA-101A and SA-101B were evaluated for their effect on HCV RNA replicons using an in vitro HCV virus replication system.
Compound preparation. Compounds were prepared as a powder (˜1 mg) and solubilized in DMSO. IFNα was used as a positive antiviral control.
HCV RNA replicon system. The assay for HCV replication employed cell line ET (luc-ubi-neo/ET), which is a human Huh7 hepatoma cell line that contains an HCV RNA replicon with a stable luciferase (Luc) reporter and three cell culture-adaptive mutations (Pietschmann et al., 2002, J. Virol. 76:4008-4021). […]
Luciferase assay. […] Compound IC50 and IC90 values (antiviral activity) are derived from plots of HCV RNA levels assessed as HCV RNA replicon-derived Luc activity versus drug concentration using Steady-Glo assay reagent (Promega), with Luc luminescence read on a 1450 Microbeta liquid scintillation and luminescence counter. Compound TC50 and TC90 values (cytotoxicity) are calculated from plots of cell number vs. drug concentration using data from the CytoTox-ONE cell proliferation assay (Promega); with fluorescence read using an Analyst HT fluorometer. […] Compound selectivity indices (SI=TC/IC) SI50 and SI90 values are calculated from spreadsheets.

[2] = system: HIV-1IIIB; assay: PBMC antiviral assay, HIV-1IIIB; format: cell-based; conditions: human PBMCs
Protocol: Compounds SA-101A and SA-101B were tested for antiviral activity against HIV-1 in peripheral blood mononuclear cells (PBMC) acutely infected with the HIV-1 isolates. PBMCs were derived from normal HIV-1 negative donors, and cultured under conditions which promote cell survival and HIV replication. Fresh human blood was obtained commercially from Biological Specialty Corporation (Colmar, Pa.). The low passage clinical isolates HIV-1Ba-L, HIVIIIB, and SIVmac251 were from the NIAID AIDS Research and Reference Reagent Program. Immediately before use, pre-titered aliquot of the viruses were removed from storage in a freezer (−80° C.) and thawed rapidly to room temperature in a biological safety cabinet. Phytohemagglutinin (PHA-P) was obtained from Sigma (St. Louis, Mo.) and recombinant IL-2 was obtained from R&D Systems Inc. (Minneapolis, Minn.). Antiviral activity was tested from a high-test concentration of 100 μM or 100 μg/ml with nine ½-log serial dilutions of the compound to derive applicable IC50 (concentration inhibition virus replication by 50%), IC90 (concentration inhibition virus replication by 90%), TC50 (concentration decreasing cell viability by 50%) and TI (therapeutic index: TC50/IC50) values.
Preparation of PMBC. Fresh Human PBMCs, Seronegative for HIV and HBV, were isolated from screened donors (Interstate Blood Bank, Inc. Memphis, Tenn.). Cells were pelleted/washed 2-3 times by low speed centrifugation and resuspensded in PBS to remove contaminating platelets. The leukophoresed blood was then diluted 1:1 with Dulbecco's Phosphate Buffered Saline (DPBS) and layered over 14 mL of Lymphocyte Separation Medium (LSM; Cellgro® by Mediatech, Inc.; density 1.078+/−0.002 g/ml; Cat. # 85-072-CL) in a 50 mL centrifuge tube and then centrifuged for 30 minutes at 600×g. […]
PMBC assay. […] Pooling (mixing) of mononuclear cells from more than one donor is used to minimize the variability observed between individual donors, which results from quantitative and qualitative differences in HIV infection and overall response to the PHA and IL-2 of primary lymphocyte populations. […]

| SMILES | Inhibition of HCV RNA replicon associated luciferase activity ([1]; lowest concentrations employed in the assay) | IC50 ([2]; Human immunodeficiency virus 1, PBMC) [µg/mL] | IC90 ([2]; Human immunodeficiency virus 1, PBMC, read-out: IC90) [µg/mL] | EC50 (HCV RNA replicon) ([1]; ET cell line, luciferase, 72 hr) | IC90 ([2]; 40% Human AB serum) [µg/mL] |
| --- | --- | --- | --- | --- | --- |
| CC(=O)O[C@@]12C[C@@H](C)[C@@]3(O)[C@@H](C=C(CO)C[C@]4(O)C(=O)C(C)=C[C@@H]34)[C@@H]1C2(C)C [SA-101A, 12-deoxyphorbol 13-acetate] | greater than 50% | 0.09 (≈ 0.23 µM) | 0.5 (≈ 1.28 µM) | – | – |
| CC(=O)OC12CC(C)C3(O)C(C=C(COC(=O)CCC(=O)O)CC4(O)C(=O)C(C)=CC43)C1C2(C)C (centres unmarked) [SA-101B, Prostratin Succinate] | – | – | – | EC50 was not reached | >1.00 |
